Laboratory results: patent US6656729B2, “Compositions which inhibit apoptosis, methods of purifying the compositions and uses thereof” (Sky High, LLC, priority 1993, dated 2003)

System: C3H 10T1/2 cells
Test: Apoptosis assay with C3H 10T1/2 cells (serum deprivation)
Assay type: cell-based
Details: for ACTIVITY (anti-apoptotic activity of known phospholipids): serum-deprived 10T½ cells, dissolved at 10 mM (100× test concentration), pre-incubation in 1% BSA, final BSA ≦0.01%
Method: In order to determine the apoptotic activity of the PAIs, the following experiment was performed. […] Exponential growth phase was assured by seeding at 2000 cells per 1 ml (5 ml for a 60 mm culture plate) five days prior to the beginning of the experiment. At T=0, cultures were transferred to serum-free medium, as an apoptosis stimulus, and seed extracts were added. Controls included 10^−7 M 12-O-tetradecanoyl phorbol-13-acetate (TPA) to ensure the responsiveness of the cell culture. The PAI samples prepared by extraction with ethanol and by gel filtration were added to serum free medium at 0.1 g dry weight equivalents and sterile filtered prior to addition to the cultures. Assays were performed in triplicate or quadruplicate. Analyses of the cell responses were made after between 22 and 28 hours of serum deprivation and/or treatment with soy flour derived PAIs. Two assays were performed on each cell culture plate consisting of differential cell counts.
1. All non-adherent or loosely adherent cells were removed from the culture dish and counted by appropriate techniques, typically counting by electric particle counting instrument. These are the apoptotic cells, the serum deprived released cells (SDR), released by the action of cultivation in serum-free medium.
2. The remaining adherent cells (ADH) are exposed to a buffered, typically pH 7.3, balanced salt solution such as Hanks Balanced Salt Solution without calcium and magnesium salts containing 0.05% trypsin and 0.53 mM ethylenediaminetetraacetic acid (EDTA). Each culture is incubated at either room temperature or 37° C. on a rocking platform to ensure uniform distribution of the trypsin reagent over the culture surface. After a standardized period of time, typically 10 minutes, the released cells are removed from each culture dish and measured by the same means as described above, typically electronic particle counting.
All commercial samples were dissolved at a concentration of 10 mM (100× test concentration) in 1% bovine serum albumin (BSA), 0.5 mM calcium chloride, 0.5 mM magnesium chloride, at room temperature. All compounds were tested after pre-incubation in 1% BSA. The final concentration of BSA in the apoptosis was ≦0.01%. […] All tested compounds were obtained from Sigma. The BSA was obtained from Boehringer Mannheim.

CCCCCCCC/C=C\CCCCCCCC(=O)OC[C@H](COP(=O)(O)O)OC(=O)CCCCCCC/C=C\CCCCCCCC (stereo in doubt) [L-a-phosphatidic acid, dioleoyl (C18:1, [cis]-9)]
ACTIVITY (anti-apoptotic activity of known phospholipids): 0

L-a-phosphatidyl inositol
ACTIVITY (anti-apoptotic activity of known phospholipids): 0

L-a-lysophosphatidyl ethanolamine
ACTIVITY (anti-apoptotic activity of known phospholipids): 0

L-a-phosphatidyl ethanolamine [L-a-phosphatidyl ethanolamine, Type IV]
ACTIVITY (anti-apoptotic activity of known phospholipids): 0

CCCCCCCC/C=C\CCCCCCCC(=O)OC[C@@H](O)COP(=O)(O)O (stereo in doubt) [L-a-lysophosphatidic acid, oleoyl (C18:1, [cis]-9)]
Anti-apoptotic activity (in words) (in the presence of Bowman-Birk inhibitors): does not confer anti-apoptotic activity | Anti-apoptotic activity (in words) (in the presence of a protein or proteins to which it specifically binds (serum albumin)): possess anti-apoptotic activity | Anti-apoptotic activity (in words) (in the presence of fraction B): possessed anti-apoptotic activity | Effect of pre-incubation on anti-apoptotic activity (pre-incubation with BSA (FIG. 14)): enhanced | Effect of pre-incubation on anti-apoptotic activity (pre-incubation with fraction B (FIG. 14)): enhanced | ACTIVITY (anti-apoptotic activity of known phospholipids): ++ | Anti-apoptotic activity (in words) (substance or fraction alone): no anti-apoptotic activity

L-a-phosphatidyl choline [L-a-phosphatidyl choline Type V-EA]
ACTIVITY (anti-apoptotic activity of known phospholipids): 0
